8 compounds from US7981918B2, “Cyclohexylpyrazole-lactam derivatives as inhibitors of 11-beta-hydroxysteroid dehydrogenase 1” (Eli Lilly and Company, priority 2006, dated 2011) can be followed below.

In test [1] the target is recombinant human 11β-HSD type 1 enzyme (Homo sapiens, UniProt P28845). The test is described as follows: 11β-HSD Type 1 Enzyme Assay (NADPH fluorescence). Conditions: three hour incubation at room temperature, read-out: Human 11-βHSD1 IC50. The class given is biochemical. Here is the method:
11β-HSD Type 1 Enzyme Assay
Human 11β-HSD type 1 activity is measured by assaying NADPH production by fluorescence assay. Solid compounds are dissolved in DMSO to a concentration of 10 mM. Twenty microliters of each are then transferred to a column of a 96-well polypropylene Nunc plate where they are further diluted 50-fold followed by subsequent two-fold titration, ten times across the plate with additional DMSO using a Tecan Genesis 200 automated system. Plates are then transferred to a Tecan Freedom 200 system with an attached Tecan Temo 96-well head and an Ultra 384 plate reader. Reagents are supplied in 96-well polypropylene Nunc plates and are dispensed individually into black 96-well Molecular Devices High Efficiency assay plates (40 μL/well capacity) in the following fashion: 9 μL/well of substrate (2.22 mM NADP, 55.5 μM Cortisol, 10 mM Tris, 0.25% Prionex, 0.1% Triton X100), 3 μL/well of water to compound wells or 3 μL to control and standard wells, 6 μL/well recombinant human 11β-HSD type 1 enzyme, 2 μL/well of compound dilutions. For ultimate calculation of percent inhibition, a series of wells are added that represent assay minimum and maximum: one set containing substrate with 667 μM carbenoxolone (background), and another set containing substrate and enzyme without compound (maximum signal). Final DMSO concentration is 0.5% for all compounds, controls and standards. Plates are then placed on a shaker by the robotic arm of the Tecan for 15 seconds before being covered and stacked for a three hour incubation period at room temperature. Upon completion of this incubation, the Tecan robotic arm removes each plate individually from the stacker and places them in position for addition of 5 μL/well of a 250 μM carbenoxolone solution to stop the enzymatic reaction. Plates are then shaken once more for 15 seconds then placed into an Ultra 384 microplate reader (355EX/460EM) for detection of NADPH fluorescence.

A further test concerns the target T1, 11β-HSD1 (Homo sapiens, UniProt P28845).
T1 construct: containing 12 ng/mL hTNFα to induce expression of 11β-HSD1; endogenous in cells; host or cells: primary human aortic smooth muscle cells (AoSMC), induced with hTNFα
The experiment in a line: Human Aortic Smooth Muscle Cell Assay (cortisone to cortisol). The class given is cell-based. Conditions: primary human aortic smooth muscle cells (AoSMC), hTNFα-induced 11β-HSD1, cortisol by immunoassay. Here is the method:
Human Aortic Smooth Muscle Cell Assay
Primary human aortic smooth muscle cells (AoSMC) are cultured in 5% FBS growth medium to a passage number of 6, then pelleted by centrifugation and resuspended at a density of 9×10^4 cells/mL in 0.5% FBS assay medium containing 12 ng/mL hTNFα to induce expression of 11β-HSD1. Cells are seeded into 96-well tissue culture assay plates at 100 μL/well (9×10^3 cells/well) and incubated for 48 hours at 37° C., 5% CO2. Following induction, cells are incubated for 4 hours at 37° C., 5% CO2 in assay medium containing test compounds then treated with 10 μL/well of 10 μM cortisone solubilized in assay medium, and incubated for 16 hours at 37° C., 5% CO2. Medium from each well is transferred to a plate for subsequent analysis of cortisol using a competitive fluorescence resonance time resolved immunoassay. In solution, an allophycocyanin (APC)-cortisol conjugate and free cortisol analyte compete for binding to a mouse anti-cortisol antibody/Europium (Eu)-anti mouse IgG complex. Higher levels of free cortisol result in diminishing energy transfer from the Europium-IgG to the APC-cortisol complex resulting in less APC fluorescence. Fluorescent intensities for Europium and APC are measured using a LJL Analyst AD. Europium and APC excitation is measured using 360 nm excitation and 615 nm and 650 nm emission filters respectively. Time resolved parameters for Europuium were 1000 μs integration time with a 200 μs delay. APC parameters are set at 150 μs integration time with a 50 μs delay. Fluorescent intensities measured for APC are modified by dividing by the Eu fluorescence (APC/Eu). This ratio is then used to determine the unknown cortisol concentration by interpolation using a cortisol standard curve fitted with a 4-parameter logistic equation. These concentrations are then used to determine compound activity by plotting concentration versus % inhibition, fitting with a 4-parameter curve and reporting the IC50.

The next test deals with cortisone conversion. The test is described as follows: Acute In Vivo Cortisone Conversion Assay. Also on record: species or system mice (male C57BL/6). To be noted: Mus musculus; mice, oral dose of 10 mg/kg, cortisone challenge after 16 hours, serum cortisol. On the procedure: Acute In Vivo Cortisone Conversion Assay
In general, compounds are dosed orally into mice, the mice are challenged with a subcutaneous injection of cortisone at a set timepoint after compound injection, and the blood of each animal is collected some time later. Separated serum is then isolated and analyzed for levels of cortisone and cortisol by LC-MS/MS, followed by calculation of mean cortisol and percent inhibition of each dosing group. Specifically, male C57BL/6 mice are obtained from Harlan Sprague Dawley at average weight of 25 grams. Exact weights are taken upon arrival and the mice randomized into groups of similar weights. Compounds are prepared in 1% w-w HEC, 0.25% w-w polysorbate 80, 0.05% w-w Dow Corning antifoam #1510-US at various doses based on assumed average weight of 25 grams. Compounds are dosed orally, 200 μl per animal, followed by a subcutaneous dose, 200 μl per animal, of 30 mg/kg cortisone at 1 to 24 hours post compound dose. At 10 minutes post cortisone challenge, each animal is euthanized for 1 minute in a CO2 chamber, followed by blood collection via cardiac puncture into serum separator tubes. Once fully clotted, tubes are spun at 2500×g, 4° C. for 15 minutes, the serum transferred to wells of 96-well plates (Corning Inc, Costar #4410, cluster tubes, 1.2 ml, polypropylene), and the plates are frozen at −20° C. until analysis by LC-MS/MS. For analysis, serum samples are thawed and the proteins are precipitated by the addition of acetonitrile containing d4-cortisol internal standard. Samples are vortex mixed and centrifuged. The supernatant is removed and dried under a stream of warm nitrogen. Extracts are reconstituted in methanol/water (1:1) and injected onto the LC-MS/MS system. The levels of cortisone and cortisol are assayed by selective reaction monitoring mode following positive ACPI ionization on a triple quadrupole mass spectrophotometer.

The next test concerns the target T2, 11-βHSD2 enzyme (Homo sapiens, UniProt P80365).
T2 sequence (P80365 1-405): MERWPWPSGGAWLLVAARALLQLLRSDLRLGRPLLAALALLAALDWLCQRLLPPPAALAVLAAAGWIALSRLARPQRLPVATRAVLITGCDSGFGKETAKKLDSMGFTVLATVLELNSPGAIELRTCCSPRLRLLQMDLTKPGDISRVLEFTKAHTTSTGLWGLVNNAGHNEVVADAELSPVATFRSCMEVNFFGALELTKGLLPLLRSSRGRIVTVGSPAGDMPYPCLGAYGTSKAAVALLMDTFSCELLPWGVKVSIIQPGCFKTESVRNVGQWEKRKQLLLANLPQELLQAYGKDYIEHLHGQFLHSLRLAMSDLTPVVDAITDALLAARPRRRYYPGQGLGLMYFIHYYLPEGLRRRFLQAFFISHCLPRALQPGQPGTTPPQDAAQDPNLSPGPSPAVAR
The experiment in a line: Selectivity assay using the 11-βHSD2 enzyme. The class given is biochemical. Conditions: selectivity 11-βHSD1 over 11-βHSD2. From the text:
Compounds of the invention can also tested for selectivity against 11-βHSD2 in an assay similar to that described for 11-βHSD1, but using the 11-βHSD2 enzyme. The assay using the 11-βHSD2 enzyme can be carried out by the methods described herein and supplemented by methods known in the art.

Chain of recombinant human 11β-HSD type 1 enzyme (P28845 whole entry): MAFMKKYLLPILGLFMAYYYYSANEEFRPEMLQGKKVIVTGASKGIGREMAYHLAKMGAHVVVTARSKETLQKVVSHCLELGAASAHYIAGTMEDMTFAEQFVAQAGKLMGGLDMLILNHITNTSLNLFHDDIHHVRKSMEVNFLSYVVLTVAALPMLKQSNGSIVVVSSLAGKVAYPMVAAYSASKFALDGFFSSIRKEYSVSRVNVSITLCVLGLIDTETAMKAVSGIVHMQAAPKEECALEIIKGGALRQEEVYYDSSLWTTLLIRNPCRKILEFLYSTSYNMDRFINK
T1 sequence (P28845 whole entry): as above

On to `COc1cc(Cl)c(CC2CCN(C3CCc4n[nH]cc4C3)C2=O)c(Cl)c1` (racemic) [Example 1, 3-(2,6-Dichloro-4-methoxy-benzyl)-1-(4,5,6,7-tetrahydro-2H-indazol-5-yl)-pyrrolidin-2-one], for which, in test [1], the IC50 was 100 nM.
On the same count and under the same terms, in the case of `COc1cc(Cl)c(CC2CCN(C3CCc4n[nH]cc4C3)C2=O)c(Cl)c1` (single isomer, unassigned) [Example 7, 3-(2,6-Dichloro-4-methoxy-benzyl)-1-(4,5,6,7-tetrahydro-2H-indazol-5-yl)-pyrrolidin-2-one] it was 37 nM.
Regarding `Cn1cc(-c2ccc(CC3CCN(C4CCc5n[nH]cc5C4)C3=O)c(Cl)c2)cn1` (centres unmarked) [Example 11, 3-[2-Chloro-4-(1-methyl-1H-pyrazol-4-yl)-benzyl]-1-(4,5,6,7-tetrahydro-2H-indazol-5-yl)-pyrrolidin-2-one], the 50% inhibitory concentration (IC50) against 11β-HSD1 was found to be 24 nM.
Still for that read-out and setting: in the case of `O=C1C(Cc2c(Cl)cc(-c3ccccc3)cc2Cl)CCN1C1CCc2n[nH]cc2C1` (centres unmarked) [Example 20] it was 2 nM.
On to `O=C1[C@H](Cc2c(Cl)cc(OCc3ccccc3)cc2Cl)CCN1[C@H]1CCc2n[nH]cc2C1` [Example 35, (3R,5S)-3-(4-Benzyloxy-2,6-dichloro-benzyl)-1-(4,5,6,7-tetrahydro-2H-indazol-5-yl)-pyrrolidin-2-one], for which, in test [1], the IC50 was 243 nM.
The compound `O=C1[C@H](Cc2c(Cl)cc(-c3ccc(F)cc3)cc2Cl)CCN1[C@H]1CCc2n[nH]cc2C1` [Example 36, (3R-5S)-(−)-3-(3,5-Dichloro-4′-fluoro-biphenyl-4-ylmethyl)-1-(4,5,6,7-tetrahydro-2H-indazol-5-yl)-pyrrolidin-2-one] registered an inhibition at 10 mg/kg with cortisone conversion of 95%. Moreover, the IC50 on 11β-HSD1 worked out at 0.4 nM; in test [1], 276 nM. On 11-βHSD2 enzyme, the “fold greater inhibition of 11-βHSD1 enzyme as compared to the inhibition of 11-βHSD2” value worked out at 535 fold.
`O=C(c1ccc(-c2cc(Cl)c(C[C@@H]3CCN(C4CCc5n[nH]cc5C4)C3=O)c(Cl)c2)cc1)N1CCOCC1` (some centres unmarked) [Example 41] gave an inhibition at 10 mg/kg in the test on cortisone conversion of 84%.
On the same count and under the same terms, in the case of `O=C1[C@H](Cc2c(Cl)cc(-c3ccc(F)nc3)cc2Cl)CCN1C1CCc2n[nH]cc2C1` (some centres unmarked) [Example 44] it was 92%.

As a reminder, the IC50 is the concentration that inhibits the measured activity by half. By inhibition is commonly meant the relative decrease from the control value, in per cent.
